Where no end group is shown, it is not given here.
What was measured:
[1] = target: T1, human orexin type 2 receptor (hOX2R) (Homo sapiens, UniProt O43614); test: Orexin type 2 receptor agonist activity (FLIPR TETRA intracellular Ca2+ fluorescence); type: cell-based; settings: for EC50: CHO cells expressing hOX2R, area of Ca2+ fluorescence over 2 min, read-out: hOx2 pEC50 (converted); for Emax at 10 µM: value at 10 μM, dilution buffer = 0%, 10 nM human orexin A = 100%, read-out: hOx2 Emax
T1 construct: expressed in transfected cells
T1 sequence (O43614 1-444): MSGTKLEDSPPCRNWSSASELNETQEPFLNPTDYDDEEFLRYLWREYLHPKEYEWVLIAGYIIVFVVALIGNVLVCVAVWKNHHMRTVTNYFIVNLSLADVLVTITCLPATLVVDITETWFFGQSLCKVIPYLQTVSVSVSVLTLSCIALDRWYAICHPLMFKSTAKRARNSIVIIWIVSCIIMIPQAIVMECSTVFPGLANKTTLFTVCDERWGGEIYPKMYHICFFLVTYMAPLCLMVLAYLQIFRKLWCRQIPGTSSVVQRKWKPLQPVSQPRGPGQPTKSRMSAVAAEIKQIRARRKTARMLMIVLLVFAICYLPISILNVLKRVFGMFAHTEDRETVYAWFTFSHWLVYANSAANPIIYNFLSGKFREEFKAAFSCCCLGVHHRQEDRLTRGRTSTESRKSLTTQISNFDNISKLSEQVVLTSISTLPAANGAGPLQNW
Procedure: Stable cell line generation. Obtainment of cells stably expressing either human orexin type 2 or human orexin type 1 receptor: to obtain a stable cell line the Orexin receptor cDNA was inserted into pcDNA3.1(+) plasmid vector and clones identified by G418 drug resistance selection. […] A single clone for OX2R-CHO and OX1R-CHO were grown in bulk and frozen to generate a cell bank for routine screening.
Measurement of orexin type 2 receptor agonist activity. Chinese hamster ovary (CHO) cells expressing human orexin type 2 receptor (hOX2R) or human orexin […] were seeded in each well of 384 well black clear bottom plates (BD Flacon) at 10,000 cells per well and cultured for 24 hr in an Ham's F12 (Gibco) medium containing 10% fetal calf serum (Sigma Aldrich) under the conditions of 37° C., 5% CO2. After removal of the medium, 50 μl of assay buffer 1 (0.1% bovine serum albumin (Sigma Aldrich), 20 mM HEPES (Molecular Dimensions), […] (Sigma Aldrich), 1× Calcium 5 dye (Molecular Devices) in Hank's balanced salt solution (Invitrogen)) was added, and the cells were incubated for 60 min under the conditions of 37° C., 5% CO2. A test compound was dissolved in dimethyl sulfoxide (Sigma Aldrich) to 10 mM, and then diluted with assay buffer 2 (20 mM HEPES, Hank's balanced salt solution, 0.1% bovine serum albumin). For the reaction, a test compound solution (10 μl) was added using Fluorescent Imaging Plate Reader TETRA (FLIPR TETRA: manufactured by Molecular Devices), a fluorescence value (excitation wavelength 488 nm, measurement wavelength 570 nm) of each well was measured every one second for 2 min, and the agonist activity was determined using the area of the fluorescence value as an indicator of intracellular Ca^2+ concentration. The agonist activity of the test compound was calculated assuming that the fluorescence value of the well added with only the dilution buffer was 0% and the fluorescence value of the well added with 10 nM human orexin A (Tocris) buffer was 100%. As used herein, Emax indicates the value at 10 μM concentration when orexin A is converted to a full agonist (maximum value of agonist activity: 100%).

mice = settings: cited from earlier work
[2] = ICV, 3 nmol, orexin-neuron ablated mice

Row | Molecule | EC50 [1] [nM] | Emax at 10 µM [1] [%] | further results
1 | CCS(=O)(=O)NC1CCN(C(=O)C(C)C)C1Cc1cccc(C#CC2(C)COC2)c1 (racemic) [Compound 1-9, N-(1-isobutyryl-2-(3-((3-methyloxetan-3-yl)ethynyl)benzyl)pyrrolidin-3-yl)ethane-sulfonamide] | > 100 | ≥ 90 | –
2 | CCS(=O)(=O)NC1CCN(C(=O)C(C)C)C1Cc1cccc(C#CC2COC2)c1 (racemic) [Compound 1-10, N-(1-isobutyryl-2-(3-(oxetan-3-ylethynyl)benzyl)pyrrolidin-3-yl)ethanesulfonamide] | > 100 | 70 to 80 | –
3 | CCS(=O)(=O)NC1CCN(C(=O)C(C)C)C1Cc1cccc(C#CCOC)c1F (racemic) [Compound 1-11, N-(2-(2-fluoro-3-(3-methoxyprop-1-yn-1-yl)benzyl)-1-isobutyrylpyrrolidin-3-yl)ethanesulfonamide] | > 100 | 70 to 80 | –
4 | CCS(=O)(=O)NC1CCN(C(=O)C(C)C)C1Cc1cccc(C#CC(C)(C)C)c1 (racemic) [Compound 1-12, N-(2-(3-(3,3-dimethylbut-1-yn-1-yl)benzyl)-1-isobutyrylpyrrolidin-3-yl) ethane-sulfonamide] | > 100 | ≥ 90 | –
5 | CCS(=O)(=O)NC1CCN(C(=O)C(C)C)C1Cc1cccc(C#CC2CCCC2)c1 (racemic) [Compound 1-13, N-(2-(3-(cyclopentylethynyl)benzyl)-1-isobutyrylpyrrolidin-3-yl)ethanesulfonamide] | > 100 | ≥ 90 | –
6 | CCS(=O)(=O)NC1CCN(C(=O)C(C)C)C1Cc1cccc(C#CC2CC2)c1 (racemic) [Compound 1-14, N-(2-(3-(cyclopropylethynyl)benzyl)-1-isobutyrylpyrrolidin-3-yl) ethanesulfonamide] | > 100 | ≥ 90 | –
7 | CCS(=O)(=O)NC1CCN(C(=O)N2CCC2)C1Cc1cccc(C#CC2CC2)n1 (racemic) [Compound 1-17, N-(1-(azetidine-1-carbonyl)-2-((6-(cyclopropylethynyl)pyridin-2-yl)methyl)pyrrolidin-3-yl)ethanesulfonamide] | > 100 | 80 to 90 | –
8 | CCS(=O)(=O)NC1CCN(C(=O)N2CCC2)C1Cc1cccc(C#CC2CC2)c1F (racemic) [Compound 1-18, N-(1-(azetidine-1-carbonyl)-2-(3-(cyclopropylethynyl)-2-fluorobenzyl)pyrrolidin-3-yl)ethanesulfonamide] | – | ≥ 90 | –
9 | CCS(=O)(=O)NC1CCN(C(=O)C2CCC2)C1Cc1cccc(C#CC2CC2)c1F (racemic) [Compound 1-19, N-(1-(cyclobutanecarbonyl)-2-(3-(cyclopropylethynyl)-2-fluorobenzyl)pyrrolidin-3-yl)ethanesulfonamide] | – | ≥ 90 | –
10 | CCS(=O)(=O)NC1CCN(C(=O)C(C)C)C1Cc1cccc(C#CC2CC2)c1F (racemic) [Compound 1-20, N-(2-(3-(cyclopropylethynyl)-2-fluorobenzyl)-1-isobutyrylpyrrolidin-3-yl)ethanesulfonamide] | – | ≥ 90 | –
11 | CCS(=O)(=O)NC1CCN(C(=O)C(C)(C)O)C1Cc1cccc(C#CC2CC2)c1 (racemic) [Compound 1-21, N-(2-(3-(cyclopropylethynyl)benzyl)-1-(2-hydroxy-2-methylpropanoyl)pyrrolidin-3-yl)ethanesulfonamide] | > 100 | 80 to 90 | –
12 | CCS(=O)(=O)NC1CCN(C(=O)C(C)(C)O)C1Cc1cccc(C#Cc2ccccc2)c1 (racemic) [Compound 1-22, N-(1-(2-hydroxy-2-methylpropanoyl)-2-(3-(phenylethynyl)benzyl)-pyrrolidin-3-yl)ethanesulfonamide] | > 100 | ≥ 90 | –
13 | CCS(=O)(=O)N[C@@H]1CCN(C(=O)N2CCC2)[C@@H]1Cc1cccc(C#CC2CC2)c1F (single isomer, unassigned) [Compound 1-15] | > 100 | 70 to 80 | –
14 | CCS(=O)(=O)N[C@H]1CCN(C(=O)N2CCC2)[C@H]1Cc1cccc(C#CC2CC2)c1F (single isomer, unassigned) [Compound 1-16] | 1 to 10 | ≥ 90 | –
15 | COC(=O)N1CCC[C@H](NS(C)(=O)=O)[C@@H]1CO[C@H]1CC[C@@H](c2ccccc2)CC1 [TAK-925] | – | – | wakefulness (mice; subcutaneous, WT mice): modestly increases wakefulness
16 | orexin A: orexin peptide cleaved from prepro-orexin; 10 nM human orexin A (Tocris) defines 100% agonist activity (QPLPDCCRQKTCSCRLYELLHGAGNHAAGILTL; ends and bridges not checked; cysteine pairing not given here; UniProt O43612 34-66, looked up) | – | – | cataplexy-like behavior (mice; [2]): decreases cataplexy-like behavior; time spent awake (mice; [2]): increase time spent awake

Further lines, with some results ahead:

Row | EC50 [1] [nM] | Emax at 10 µM [1] [%] | Molecule | further results
17 | > 100 | 60 to 70 | CC1(C#Cc2cccc(C[C@@H]3[C@H](NS(C)(=O)=O)CCCN3C(=O)[C@H]3CCO3)c2F)CC1 (single isomer, unassigned) [Compound 1-4] | –
18 | – | ≥ 90 | CC1(C#Cc2cccc(C[C@H]3[C@@H](NS(C)(=O)=O)CCCN3C(=O)[C@H]3CCO3)c2F)CC1 (single isomer, unassigned) [Compound 1-5] | –
19 | – | ≥ 90 | CC1(C#Cc2cccc(C[C@H]3[C@@H](NS(C)(=O)=O)CCN3C(=O)[C@H]3CCO3)c2F)CC1 [Compound 1-1, N-((2S,3S)-2-(2-fluoro-3-((1-methylcyclopropyl)ethynyl)benzyl)-1-((R)-oxetane-2-carbonyl)pyrrolidin-3-yl)methanesulfonamide] | –
20 | – | ≥ 90 | CS(=O)(=O)N[C@H]1CCN(C(=O)[C@H]2CCO2)[C@H]1Cc1cccc(C#CC2(C(F)(F)F)CC2)c1F [Compound 1-2, N-((2S,3S)-2-(2-fluoro-3-((1-(trifluoromethyl)cyclopropyl)ethynyl)benzyl)-1-((R)-oxetane-2-carbonyl)pyrrolidin-3-yl)methanesulfonamide] | –
21 | – | ≥ 90 | CC1(C#Cc2cccc(C[C@H]3[C@@H](NS(C)(=O)=O)CCN3C(=O)[C@H]3CCO3)c2)CC1 [Compound 1-3, N-((2S,3S)-2-(3-((1-methylcyclopropyl)ethynyl)benzyl)-1-((R)-oxetane-2-carbonyl)pyrrolidin-3-yl)methanesulfonamide] | –
22 | – | ≥ 90 | CCNC(=O)N1CC[C@H](NS(C)(=O)=O)[C@@H]1Cc1cccc(C#CC2(C)CC2)c1F [Compound 1-6, (2S,3S)—N-ethyl-2-(2-fluoro-3-((1-methylcyclopropyl)ethynyl)benzyl)-3-(methylsulfonamido)pyrrolidine-1-carboxamide] | –
23 | – | ≥ 90 | CS(=O)(=O)N[C@H]1CCN(C(=O)N2CCC2)[C@H]1Cc1cccc(C#CC2CCC2)c1F [Compound 1-7, N-((2S,3S)-1-(azetidine-1-carbonyl)-2-(3-(cyclobutylethynyl)-2-fluorobenzyl)-pyrrolidin-3-yl)methanesulfonamide] | –
24 | 1 to 10 | ≥ 90 | CC1(C#Cc2cccc(C[C@H]3[C@@H](NS(C)(=O)=O)CCN3C(=O)N3CCC3)c2F)CC1 [Compound 1-8, N-((2S,3S)-1-(azetidine-1-carbonyl)-2-(2-fluoro-3-((1-methylcyclopropyl)-ethynyl)benzyl)pyrrolidin-3-yl)methanesulfonamide] | –

From patent publication US12679804B2, “2-(3-ethynylbenzyl)-substituted heterocycle derivatives and related uses” (CENTESSA PHARMACEUTICALS (UK) LIMITED, priority 2021, dated 2026)
